Reference: PubChem BioAssay AID624419 (Sanford-Burnham Center for Chemical Genomics, 2012)

system: mouse plasma stability, percent remaining; assay: second set, compound stability in murine plasma, biochemical ADME (AID 624419); settings: at 1 µM

Compound | plasma stability [%]
C/C=C/Cn1c(SCCCc2ccccc2)nc2c1c(=O)[nH]c(=O)n2C | 100
O=C(O)c1cccnc1SCCc1ccccc1 | 100
COc1nc(-c2ccccc2)nnc1-c1ccccc1 | 100
O=C(CSc1cccc2cccnc12)N1CCCC1 | 100
N#C/C(=C\c1ccc([N+](=O)[O-])o1)c1nc2ccccc2[nH]1 | 9.6
Cc1ccnc(NC(=O)CCCOc2cc(=O)n(C)c3ccccc23)c1 | 0.15
CSc1nc(-c2ccc(C)cc2)nc(C(Cl)Cl)n1 | 84.8
COc1ccc(OC)c(-c2nnc3n2N=C(c2ccc(OC)c(OC)c2)CS3)c1 | 100
CCN1CCN(c2nc3ccccc3nc2C(C#N)C(=O)OC2CCCCC2)CC1 (stereo not given) | 15.5
CCCOc1ccc(-c2nc(OC)c3ccccc3n2)cc1 | 100
CN(C)c1oc(-c2ccc(OCc3ccc(Cl)cc3)cc2)nc1C#N | 91.4
CCOc1ccc(-c2nc(-c3ccncc3)no2)cc1OCC | 92.1
Cc1ccccc1N1CCN(c2ncnc3c2cnn3Cc2ccc(Cl)cc2)CC1 | 100
COc1ccc(CNCc2cccc3ccccc23)cc1 | 80.5
Cc1cc(-c2nnc3n2CCCCC3)c(C)n1-c1ccccc1 | 91.3
Cc1cccc(-n2cnc3cc(C(=O)N4CCCCC4)ccc32)c1 | 87.1
O=C(CCNS(=O)(=O)c1cccc2nsnc12)N1CCN(c2ccccn2)CC1 | 100
Cc1ccc(S(=O)(=O)C(c2ccccc2)c2c(C)noc2C)cc1 (stereo not given) | 97.8
CCOc1ccc(NC(=S)N2CCC(C(O)(c3ccccc3)c3ccccc3)CC2)cc1 | 73.7
Cc1ccc(C(=O)n2c3ccccc3c3ccccc32)cc1 | 100
CCOC(=O)C(C)Oc1cccc2c(=O)n(CC(=O)Nc3ccc4c(c3)OCCO4)ccc12 (stereo not given) | 0.19
O=C(COc1ccccc1Br)NCCc1nc2ccccc2[nH]1 | 100

Compound | plasma stability [%]
Cn1nnnc1Sc1ncnc2scc(-c3ccccc3)c12 | 81.9
CCCN1CNc2c(c(=O)[nH]c(=S)n2CCc2ccc(OC)c(OC)c2)C1 | 99.5
CCCc1nc2c(=O)n(C)c(=O)nc-2n(C)n1 | 56.7
COc1ccc(C2c3c(ncn(CCN4CCOCC4)c3=N)Oc3ccc4ccccc4c32)cc1OC (stereo not given) | 100
Cn1cnc([N+](=O)[O-])c1Sc1ncnc2nc[nH]c12 | 84.1
Cc1ccc(NS(=O)(=O)c2ccc3c(c2)CCC(=O)N3)cc1C | 100
O=C(O)c1ccc(N2C(=O)/C(=C/c3ccc(-c4ccc([N+](=O)[O-])cc4)o3)C=C2c2ccccc2)cc1 | 99.7
COc1ccc(S(=O)(=O)n2nc(OC(=O)c3ccccc3)cc2N)cc1 | 73.7
CCCC(=O)Nc1cccc(NC(=O)c2ccccc2Br)c1 | 0.14
O=C(COC(=O)C12CC3CC(CC(C3)C1)C2)NCc1ccco1 | 2.35
Cc1nc(SCc2nc3ccccc3[nH]2)c2oc3ccccc3c2n1 | 100
Cc1cc2c(s1)c1cnn(Cc3ccccc3F)c(=O)c1n2C | 89.8
CC1CCCN(C(C(=O)Nc2ccc3c(c2)OCCO3)c2ccccc2)C1 (stereo not given) | 100
Cc1ccc(S(=O)(=O)NCc2ccc(C(=O)NCCN(Cc3ccccc3)C(C)C)cc2)cc1 | 100
COc1ccc(CSc2nc(C)cc(=O)[nH]2)cc1 | 100
COC(=O)c1ccccc1NC(=O)c1ccc(F)cc1 | 17
N#Cc1ccccc1CSc1nc2ncc(Br)cc2[nH]1 | 100
CCCc1cc(C(=O)N(C2CCCCC2)C2CCCCC2)no1 | 84
CC(C)C(=O)NC(c1ccco1)c1ccc2cccnc2c1O (stereo not given) | 95.2
CC[C@H]1CN2CCc3cc(OC)c(OC)cc3[C@@H]2C[C@@H]1C[C@H]1NCCc2cc(OC)c(OC)cc21 | 100
O=C1C2CC=CCC2C(=O)N1c1n[nH]c(-c2ccccc2)n1 (stereo not given) | 52.7
c1ccc(-c2nnc(N3CCOCC3)nc2-c2ccccc2)cc1 | 100

Compound | plasma stability [%]
Cc1ccc(C)c(OCCn2cc(C(=O)O)c3ccccc32)c1 | 94.8
O=C(O)CCC(NS(=O)(=O)c1ccc(-c2ccccc2)cc1)C(=O)O (stereo not given) | 88.8
Brc1cc2c(cc1C1Nc3ccccc3C3C=CCC31)OCO2 (stereo not given) | 100
NC(=O)C1CCN(c2nc(-c3ccc(Br)cc3)cs2)CC1 | 82.8
COc1ccc(S(=O)(=O)N2CCN(S(=O)(=O)c3ccc4c(c3)OCCO4)CC2)cc1 | 100
CC(=O)c1ccc(N2CCN(S(=O)(=O)c3ccc4c(c3)CC(=O)N4)CC2)cc1 | 100
COc1ccccc1N(/N=C1\Sc2ccccc2C1=O)C(C)=O | 4.35
COc1ccc(N(C(=O)CCl)C(C(=O)NCCc2ccccc2)c2cccs2)cc1Cl (stereo not given) | 15.3
Brc1ccc2c(c1)CN1CCCC1=N2 | 100
COc1ccc(Sc2ccc(NC(=O)c3ccccc3Cl)cc2C#N)cc1 | 91.6
COc1ccc(OC)c(S(=O)(=O)Nc2cnc3ccccc3c2)c1 | 100
C=CCn1c(SCC(=O)c2ccc(O)c(O)c2)nnc1-c1ccccc1OC | 73.5
c1ccc2c(Nc3nnc(-c4ccncc4)s3)cccc2c1 | 96.4
Cc1ccc(N2CCN(S(=O)(=O)N3CCCCC3)CC2)c(C)c1 | 100
Cc1cc(C)n(-c2nc(NCCCO)c3c4c(sc3n2)CCCC4)n1 | 100
O=c1[nH]c2c(s1)C(c1cccnc1)C1C3CCC(C3)C1S2 (stereo not given) | 100
Cc1ccc(-n2c(N)c(C#N)c(-c3ccccc3)c(C#N)c2=O)cc1 | 100
c1ccc(CC2CCN(c3ncnc4sccc34)CC2)cc1 | 100
CN(C)C1=C(Cl)C(=O)N(c2ccc(Cl)c(Cl)c2)C1=O | 6.46
O=S1(=O)Nc2c(ccc3cccnc23)-c2ccccc21 | 100
COc1cccc(-c2nc(-c3ccc(NC(=O)Cc4ccccc4OC)cc3)no2)c1 | 100
O=C(c1ccccn1)N(Cc1cccs1)C1(C(=O)NC2CCCCC2)CCCCC1 | 100

Compound | plasma stability [%]
O=C1CCCC2=C1C1(CCCC1)N=C(Nc1nc3ccccc3o1)N2 | 100
CCc1oc2ccccc2c1C(=O)c1cc(Br)c(O)c(Br)c1 | 100
Cc1cc(C(=O)CN2C(=O)CCC2=O)c(C)n1Cc1ccccc1 | 98
COc1ccc(C2CC(c3ccccc3)=NN2c2ccc(S(N)(=O)=O)cc2)cc1 (stereo not given) | 100
CS(=O)(=O)c1ccc(C(=O)OCC(=O)NC23CC4CC(CC(C4)C2)C3)cc1[N+](=O)[O-] | 91.4
CCc1nnc(NC(=O)c2ccc(NS(=O)(=O)c3ccccc3)cc2)s1 | 97.6
O=[N+]([O-])c1ccc(CN2CCOCCOCCN(Cc3ccc([N+](=O)[O-])cc3)CCOCC2)cc1 | 100
CN(C)c1nc(N)nc(CSc2nnnn2-c2cccc3ccccc23)n1 | 100
O=C(O)c1ccccc1OCc1ccccc1Br | 100
Cc1ccc(S(=O)(=O)n2c(N)nc3ccccc32)cc1 | 100
CCCn1ncc(CN2CCCC(C(=O)c3cccc(OC(C)C)c3)C2)c1C (stereo not given) | 96.7
CCCN(CCC)CCNC(=O)C1CCN(Cc2nc(-c3ccc(Cl)cc3)oc2C)CC1 | 100
COc1cc(NC(=O)c2cc(C3CC3)on2)c(OC)cc1Cl | 42.4
Cc1cc(C)nc(-n2nc(C)c(Sc3ccc(F)cc3)c2N)n1 | 93.6
O=S(=O)(NC1CCCCC1N1CCOCC1)c1ccc(Cl)cc1 (stereo not given) | 100
Cc1ccc(NC(=O)CCC(=O)N/N=C/c2ccc([N+](=O)[O-])o2)cc1C | 73.3
O=c1[nH]c(SCc2ccc(Cl)cc2)nc2c1CCC2 | 100
O=C1NCCCc2c1oc1ccc(O)cc21 | 97.2
Cc1ccc(C)c(NS(=O)(=O)c2cc(C(=O)Nc3ccccc3-c3ccccc3)ccc2Cl)c1 | 83.4
